ChEMBL document CHEMBL3988442, “University of Dundee, Small-Polar-MMV Screening Library” (2021)
Values joined by “and” are separate entries in the source; they are usually repeats but may differ in a detail not shown here. Identical values can stand only once.

Tests used:
Histidine--tRNA ligase = molecular target: T1, Histidine--tRNA ligase (Leishmania infantum, UniProt A4I591); assay: Leishmania infantum Histidine tRNA synthetase (LdHisRS); type: functional
T1 sequence (A4I591 whole entry): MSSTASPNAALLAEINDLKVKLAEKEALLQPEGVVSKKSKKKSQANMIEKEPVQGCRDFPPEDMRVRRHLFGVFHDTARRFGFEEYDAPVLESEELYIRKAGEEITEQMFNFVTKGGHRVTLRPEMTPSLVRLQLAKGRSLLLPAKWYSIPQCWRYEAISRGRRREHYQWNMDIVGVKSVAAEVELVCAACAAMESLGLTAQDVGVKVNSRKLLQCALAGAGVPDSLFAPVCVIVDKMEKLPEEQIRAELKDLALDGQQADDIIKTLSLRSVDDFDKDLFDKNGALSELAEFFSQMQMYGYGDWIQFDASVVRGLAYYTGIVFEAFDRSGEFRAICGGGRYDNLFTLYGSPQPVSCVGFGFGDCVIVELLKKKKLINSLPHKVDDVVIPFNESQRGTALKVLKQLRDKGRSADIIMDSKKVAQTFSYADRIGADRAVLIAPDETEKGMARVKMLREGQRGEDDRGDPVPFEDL

[1] = microbe, parasite or virus in culture; settings: Mycobacterium tuberculosis, 96 h, read-out: pIC50 (converted)
[2] = microbe, parasite or virus in culture; settings: Mycobacterium tuberculosis, 72 h, read-out: pIC50 (converted)

SMILES	IC50 (Histidine--tRNA ligase)	IC50 [1] [µM]	IC50 [2] [µM]
CCCc1ccc(OC23CCCN(CC2)C3)c(OC)c1 (stereo unspecified)	38 µM and 39.5 µM	22.7	23.5
c1ccc(-c2cc(CN3C[C@@H]4CC[C@H](C3)N(CC3CCC3)C4)on2)cc1	32.5 µM and 36.9 µM	13.3	8.42
CN(CC1CCN(c2ccccc2)C1)c1ccc(Cn2ccnc2)cn1 (stereo unspecified)	91.9 µM and 98.7 µM	27.4	27.7
CN(C)c1nc2c(c(N3CCc4ccccc4C3)n1)CCNC2	28.8 µM and 22.8 µM	> 50.1	31.3
Cc1ccc(S(=O)(=O)N2CCc3nc(C4CCNCC4)ncc3C2)cc1	> 100 µM and 97.1 µM	6.39	> 50.1
O=C(c1nc2c(s1)CCCN2CC1CC1)N1CCOCC1	19 µM and 13.2 µM		
COc1ccc(C(NCc2cccc(O)c2)C2CC2)cc1 (stereo unspecified)	26.9 µM and 20.1 µM		
Cc1ccccc1CC(C)(C)NC(=O)c1cccc(OCC(N)=O)c1	77.2 µM and > 100 µM		
COc1nccnc1-c1cc(NC2CCNCC2)nc2[nH]ccc12	34.1 µM and 29.8 µM		
COCCOc1ccccc1C(=O)N1CCCCC1c1nccs1 (stereo unspecified)	51.1 µM and 64.2 µM		
CCn1nnc2c1C(COCC(=O)N(C)C)CN(Cc1ccco1)C2 (stereo unspecified)	> 100 µM		
COc1ccc2c(c1)c(C(=O)Nc1nnn[nH]1)cn2C(C)C	> 100 µM		
O=C(O)C1c2nc[nH]c2CCN1CC(c1ccccc1)c1ccccc1 (stereo unspecified)	6.21 µM and 7.09 µM		
Cn1ncc(-c2cc(-c3cccc(O)c3)nc(N)c2C#N)c1C1CC1	61.2 µM and 76.8 µM		
Cc1cc2nc(SCC(=O)N3CCCC3)n(-c3ccccc3)c(=O)c2[nH]1	80.7 µM and > 100 µM		
Cc1cc(C(=O)Nc2cccn(Cc3ccc(F)cc3)c2=O)on1	12.9 µM and 11.3 µM		
Cn1nc2c(cc1=O)CN(Cc1nc(-c3ccco3)no1)CC2	11.8 µM and 14 µM		
COc1cc(CCO)c(OC)c2c1OCO2	> 100 µM		
CC(C)c1ncc2c(n1)CN(Cc1nc(Cc3ccccc3)no1)CC2	> 100 µM		
CCC(C#N)NC(=O)CCCOc1cccc(C(C)=O)c1 (stereo unspecified)	> 100 µM		
Cc1ncc2c(n1)CN(Cc1nnc(Cc3ccccc3)o1)CC2	48.1 µM and 49.9 µM		
Cc1ncc2c(n1)CN(Cc1nnc(-c3occc3C)o1)CC2	64.7 µM and 82.6 µM		

SMILES	IC50 (Histidine--tRNA ligase)	IC50 [1] [µM]	IC50 [2] [µM]
CC1=Nc2c(c(=O)[nH]n2C(C)C)C(c2ccc3c(c2)OCCO3)S1 (stereo unspecified)	> 100 µM		
NC(=O)CCS(=O)(=O)Cc1ccc(OCC(F)(F)F)cc1	> 100 µM and 68.4 µM		
CCC1=NOC(CNCc2cnc(-c3ccccc3C)s2)C1 (stereo unspecified)	> 100 µM		
COc1cccn(Cc2nnc(-c3cccc(F)c3)o2)c1=O	15.9 µM and 12.8 µM		
COc1ccc(C(C)=O)cc1CN1CCn2cccc2C1C (stereo unspecified)	31.8 µM and 50.6 µM		
O=C1CC(c2ccc(C(=O)O)cc2)c2ncn(-c3ccccc3F)c2N1 (stereo unspecified)	19.1 µM and 25.2 µM		
Cn1cc(NC(=O)Nc2cccc3cccnc23)ccc1=O	2.58 µM and 4.22 µM		
CC1=C(C#N)C(=O)NC(=O)/C1=C\c1c(C)nn(-c2ccc(Cl)cc2)c1O	> 100 µM		
CCCN1CCC(Cc2nn3c(C(C)C)nnc3s2)CC1	> 100 µM		
Cc1cn2nc(N(C)C3CCCN(c4cccnn4)C3)sc2n1 (stereo unspecified)	29.6 µM and 43.5 µM		
CCCn1nc2c(cc1=O)CN(Cc1cc(C)on1)CC2	80.7 µM and 80.3 µM		
CCCn1nc2c(cc1=O)CN(CC1CCCCO1)CC2 (stereo unspecified)	33.8 µM and 42.3 µM		
Cc1ccc(CNC(=O)c2nc3c(o2)CN(C(=O)c2cccnc2)C3)o1	37.2 µM and 54.7 µM		
Nc1nnc(SCC(=O)c2cc3c(cc2Cl)NC(=O)C3)s1	> 100 µM and 77.9 µM		
Cc1c(Cl)cccc1NC(=O)Cn1cc(C(=O)O)ccc1=O	> 100 µM		
Cc1noc(C)c1CNc1c(N2CCCC2)cccc1N1CCCC1	> 100 µM		
c1ccc(-c2cnc(CNC3CCCN(c4cccnn4)C3)o2)cc1 (stereo unspecified)	43.5 µM and 30.5 µM		
CC1=C(C#N)C(=O)NC(=O)/C1=C\c1c(C)nn(-c2ccc(C)cc2)c1O	58.7 µM and 48 µM		
CCn1nnc2c1C(COC)CN(Cc1ccco1)C2 (stereo unspecified)	> 100 µM		
COc1ccc(-c2noc(CN3CCc4cncnc4C3)n2)cc1	> 100 µM		
CC(C)c1cc(NC(=O)CN2CCc3nn(C)c(=O)cc3C2)on1	> 100 µM		
CCN1CC2(CCOCC2)c2cc(NS(=O)(=O)CC)ccc21	8.64 µM and 21.4 µM		

SMILES	IC50 (Histidine--tRNA ligase)	IC50 [1] [µM]	IC50 [2] [µM]
CCOc1ccc2nc(CN3CCC(CN)C3)ccc2c1 (stereo unspecified)	33.2 µM and 46.9 µM		
COCCCN(C)C(=O)Cn1cccc(OC)c1=O	66 µM and 57.5 µM		
Cc1noc(C)c1CNc1ccc2nc(C3CC3)sc2c1	> 100 µM		
c1cncc(-c2ccc3c(c2)C2(CC3)CCN(c3nncs3)CC2)c1	32.5 µM and 45.4 µM		
Cn1cccc(NC(=O)NCc2cccc(CO)c2)c1=O	> 100 µM		
CCOc1ccc(N(CCC#N)C(=O)c2ccnc(SC)c2)cc1	> 100 µM		
CN(C)C(=O)CN1CCCC1c1cccc(Cc2ccccc2F)n1 (stereo unspecified)	61.1 µM and 51.2 µM		
COCCN1CCCC(C)(c2cc(O)[nH]n2)C1 (stereo unspecified)	> 100 µM		
COc1ccccc1C1(CNCc2ccc(C#N)cc2)CCOCC1	50.4 µM and 50.9 µM		
CN1C(=O)[C@H]2CC[C@@H]1CN(C(=O)Nc1cccc3ccccc13)C2	55.3 µM and 43.3 µM		
CN1CCCN(C(=O)c2nc3c(s2)CCCN3CC2CC2)CC1	77.9 µM and 55.6 µM		
CN(C)CCN1CCO[C@@H]2CCN(C(=O)c3cccn3C)CC[C@H]21	> 100 µM		
CC(NC(=O)c1coc(COc2cccc(F)c2)n1)c1nnc(N)s1 (stereo unspecified)	98.7 µM and 60.1 µM		
CS(=O)(=O)N1CCCC(Cc2ccnc3ccncc23)CC1 (stereo unspecified)	21.6 µM and 22.8 µM		
Cc1ccc(-c2noc(CN3CCc4nn(C)c(=O)cc4C3)n2)cc1	29.8 µM and 30.4 µM		
c1cc(-c2ccc3c(c2)CCC32CCN(c3nncs3)CC2)co1	12.5 µM and 10.1 µM		
c1cc(-c2nnc3sc(CCN4CCCC4)nn23)ccn1	> 100 µM		
O=C(CN1CCc2cncnc2C1)NCCOc1ccccc1	74.1 µM and 60.5 µM		
NC(=O)c1ccc(N2CCCCC2)c(NC(=O)c2ccc(F)cc2Cl)c1	71.9 µM and 52.6 µM		
Cc1ccc(CN2C(=O)CCC2C(=O)Nc2cnn(C)c2)o1 (stereo unspecified)	> 100 µM and 90.1 µM		
O=C(c1cc(=O)n(-c2ccccc2)[nH]1)N1CCCC(c2ccn[nH]2)C1 (stereo unspecified)	49.3 µM and 44.5 µM		
CCc1cc(N2CCC(F)(F)CC2)n2nc(C)c(C)c2n1	> 100 µM		

SMILES	IC50 (Histidine--tRNA ligase)	IC50 [1] [µM]	IC50 [2] [µM]
O=C(Cc1cnc(-c2c(Cl)cccc2Cl)s1)N1CCOCC1	> 100 µM		
Cc1ccc(C(=O)N2CCN(C(=O)NC(C)Cn3ccnc3)CC2)o1 (stereo unspecified)	> 100 µM		
O=C(c1ccc2[nH]ccc2c1)N1CCn2cnc(COCC3CC3)c2C1	38.4 µM and 25.7 µM		
COc1cccc(CN2CCN(CC(C)C)C(=O)C2C)c1O (stereo unspecified)	6.15 µM and 5.67 µM		
Cc1nccc(-c2cccc(NCC(=O)N3CCc4sccc4C3)c2)n1	73.8 µM and 68.4 µM		
CCS(=O)(=O)Nc1ccc2c(c1)C1(CCOCC1)CN2C	13.4 µM and 11 µM		
Cc1cc(NC(=O)CN2CCc3nn(C)c(=O)cc3C2)no1	> 100 µM		
COc1ccc(Oc2nccc3occc23)cc1CN1CCCC1	66.1 µM and 62.2 µM		
O=C(c1ccc2[nH]ccc2c1)N1Cc2nc(CN3CCCCC3)oc2C1	33.7 µM and 23.5 µM		
O=C(c1cc(-c2ccco2)nc2c(Cl)cccc12)N1C[C@H]2CNC[C@H]2C1	48.1 µM and 51.8 µM		
COc1cccn(CC(=O)N(C)CCC2CCOCC2)c1=O	> 100 µM	> 50.1	
O=C(NC1CCCN(c2ccc(OC(F)F)cc2)C1)c1ccon1 (stereo unspecified)	> 100 µM		
Cc1cccc2c1nc(COCC(=O)O)n2-c1cnc(N)cn1	> 100 µM		
COc1cccc2c1OCCCN(c1nc(N)nc3c1CCNC3)C2	28.2 µM and 32.1 µM		
O=C1CC(c2ccc(C(=O)O)cc2)c2ncn(-c3ccc(Cl)cc3)c2N1 (stereo unspecified)	15.7 µM and 12.4 µM		
CC(c1ccco1)n1cc(-c2cc(CN3CCCC3)cs2)nn1 (stereo unspecified)	55.6 µM and 80.9 µM		
Cc1ccc(N2CCc3sc(C(=O)N4CCOCC4)cc32)nn1	> 100 µM		
CC(C)[C@H](NS(C)(=O)=O)C(=O)NCc1cc(-c2ccco2)n[nH]1	87.9 µM and 82 µM		
NCCc1cccc(CN2CCN(c3ccccc3)C(=O)C2)c1	26.8 µM and 20.5 µM		
